Read-outs that look alike come from different tables or passages of the source.
Columns and labels:
[1] = tested on: Phakopsora pachyrhizi (F129L); assay: Protective control of soybean rust on soybeans (PHAKPA P2); assay type: in vivo; conditions: for % PHAKPA (F129L) Disease level, P2 at 4 ppm: protective P2, 4 ppm; for % PHAKPA (F129L) Disease level, P2 at 16 ppm: protective P2, 16 ppm
[2] = tested on: Phakopsora pachyrhizi (F129L); assay: Protective control of soybean rust on soybeans (PHAKPA P6); assay type: in vivo; conditions: for % PHAKPA (F129L) Disease level, P6 at 16 ppm: protective P6, 16 ppm; for % PHAKPA (F129L) Disease level, P6 at 4 ppm: protective P6, 4 ppm
Septoria tritici = assay: Micro titer plate test against Septoria tritici causing leaf blotch on wheat (SEPTTR); assay type: cell-based; conditions: 0.25 ppm
Cercospora sojina = assay: microbe, parasite or virus in culture; assay type: cell-based; conditions: 168 h, read-out: Fungal growth (%) CERCSO
Alternaria solani (wt) = assay: microbe, parasite or virus in culture; assay type: cell-based
Leptosphaeria nodorum = assay: Micro titer plate test against Leptosphaeria nodorum causing wheat leaf spots (LEPTNO); assay type: cell-based; conditions: for activity at 0.063 ppm: Parastagonospora nodorum, 168 h, read-out: Fungal growth (%) LEPTNO
Pyrenophora teres (wt) = assay: Micro titer plate test against Pyrenophora teres causing net blotch on barley (PYRNTE wt); assay type: cell-based
[3] = tested on: Alternaria solani (F129L); assay: Micro titer plate test against Alternaria solani causing early blight (ALTESO F129L); assay type: cell-based; conditions: relative growth vs compound-free control (100%), 7 days
[4] = tested on: Colletotrichum orbiculare; assay: Micro titer plate test against Colletotrichum orbiculare causing anthracnose (COLLLA); assay type: cell-based
Pyricularia oryzae = assay: microbe, parasite or virus in culture; assay type: cell-based
[5] = tested on: Pyrenophora teres (F129L); assay: Micro titer plate test against Pyrenophora teres causing net blotch on barley (PYRNTE F129L); assay type: cell-based; conditions: 0.25 ppm, relative growth vs compound-free control (100%), 7 days
Microdochium nivale = assay type: cell-based
[6] = 0.063 ppm, relative growth vs compound-free control (100%), 7 days
[7] = protective, inoculation 2 days after spraying, % diseased leaf area
[8] = protective, inoculation six days after spraying, % diseased leaf area
[9] = relative growth vs compound-free control (100%), 7 days

## CO/N=C(/C(=O)OC)c1cccc(C)c1CO/N=C(\OC)c1cccc(C)c1 [reference compound]
[1]
  % PHAKPA (F129L) Disease level, P2 at 4 ppm: 83%
[2]
  % PHAKPA (F129L) Disease level, P6 at 16 ppm: 57%

## CO/N=C(/C(=O)OC)c1cccc(C)c1CO/N=C(\SC)c1cccc(Cl)c1 [drawing 962]
Septoria tritici
  Fungal growth (%) SEPTTR: 39%

## CNC(=O)/C(=N/OC)c1cccc(C)c1CO/N=C(/c1cccc(C)c1)C1CC1 [drawing 960]
Septoria tritici
  Fungal growth (%) SEPTTR: 87%

## CO/N=C(/C(=O)OC)c1cccc(C)c1CO/N=C(\C)c1cccc(C)c1 [drawing 956, reference compound]
Cercospora sojina
  activity at 4 ppm: 67%
Alternaria solani (wt); Alternaria solani, 168 h, read-out: Fungal growth (%) ALTESO wt
  activity at 0.016 ppm: 93%
Leptosphaeria nodorum; [6]
  activity at 0.063 ppm: 65%
Pyrenophora teres (wt); Pyrenophora teres, 168 h, 0.25 ppm, relative growth vs compound-free control (100%), 7 days, read-out: Fungal growth (%) PYRNTE wt
  activity at 0.25 ppm: 53%
[3]; Alternaria solani, 168 h, 0.016 ppm, read-out: Fungal growth (%) ALTESO F129L
  activity at 0.016 ppm: 81%

## CO/N=C(/C(=O)OC)c1cccc(C)c1CO/N=C(/c1cccc(Cl)c1)C1CC1 [drawing 983, reference compound]
[1]
  % PHAKPA (F129L) Disease level, P2 at 4 ppm: 83%
[2]
  % PHAKPA (F129L) Disease level, P6 at 16 ppm: 87%

## CNC(=O)/C(=N/OC)c1cccc(C)c1CO/N=C(\C)c1c(Cl)cc(Cl)cc1OC(F)(F)F [compound 428]
[1]
  % PHAKPA (F129L) Disease level, P2 at 4 ppm: 70%
  % PHAKPA (F129L) Disease level, P2 at 16 ppm: 11%
[2]
  % PHAKPA (F129L) Disease level, P6 at 4 ppm: 83%
  % PHAKPA (F129L) Disease level, P6 at 16 ppm: 20%

## CO/N=C(/C(=O)OC)c1cccc(C)c1CO/N=C(\SC)c1cccc(C)c1 [drawing 974, reference compound]
[1]
  % PHAKPA (F129L) Disease level, P2 at 4 ppm: 60%
[2]
  % PHAKPA (F129L) Disease level, P6 at 16 ppm: 30%

## CNC(=O)/C(=N/OC)c1cccc(C)c1CO/N=C(\SC)c1cccc(Cl)c1 [drawing 968]
Septoria tritici
  Fungal growth (%) SEPTTR: 59%

## CO/N=C(/C(=O)OC)c1cccc(C)c1CO/N=C(/c1cccc(C)c1)C1CC1 [drawing 973, reference compound]
[1]
  % PHAKPA (F129L) Disease level, P2 at 4 ppm: 80%
[2]
  % PHAKPA (F129L) Disease level, P6 at 16 ppm: 37%

## CO/N=C(/C(=O)OC)c1cccc(C)c1CO/N=C(\C)c1ccccc1F [Ex. 1]
[1]; [7]
  PHAKPA (F129L) Disease level (%) P2 at 16 ppm: 28%
[1]; soybean rust F129L
  % PHAKPA (F129L) Disease level, P2 at 4 ppm: 80%
  % PHAKPA (F129L) Disease level, P2 at 16 ppm: 27%
[2]; [8]
  PHAKPA (F129L) Disease level (%) P6 at 16 ppm: 47%
[2]; soybean rust F129L
  % PHAKPA (F129L) Disease level, P6 at 4 ppm: 90%
  % PHAKPA (F129L) Disease level, P6 at 16 ppm: 56%

## CNC(=O)/C(=N/OC)c1cccc(C)c1CO/N=C(\OC)c1cccc(C)c1 [drawing 976, reference compound]
[2]
  % PHAKPA (F129L) Disease level, P6 at 16 ppm: 45%

## CNC(=O)/C(=N/OC)c1cccc(C)c1CO/N=C(/c1cccc(C)c1)C1CC1 [drawing 977, reference compound]
[1]
  % PHAKPA (F129L) Disease level, P2 at 4 ppm: 67%
[2]
  % PHAKPA (F129L) Disease level, P6 at 16 ppm: 67%

## CNC(=O)/C(=N/OC)c1cccc(C)c1CO/N=C(\OC)c1cccc(C)c1 [drawing 959]
Septoria tritici
  Fungal growth (%) SEPTTR: 100%

## CNC(=O)/C(=N/OC)c1cccc(C)c1CO/N=C(\CC(F)(F)F)c1ccc(F)cc1C [compound 394]
[1]
  % PHAKPA (F129L) Disease level, P2 at 4 ppm: 9%
  % PHAKPA (F129L) Disease level, P2 at 16 ppm: 3%
[2]
  % PHAKPA (F129L) Disease level, P6 at 4 ppm: 12%
  % PHAKPA (F129L) Disease level, P6 at 16 ppm: 2%

## CNC(=O)/C(=N/OC)c1cccc(C)c1CO/N=C(\C)c1cccc(Cl)c1 [compound 157]
Septoria tritici
  Fungal growth (%) SEPTTR: 20%
[1]; 4 ppm, protective, inoculation 2 days after spraying, % diseased leaf area
  PHAKPA (F129L) Disease level (%) P2 at 4 ppm: 0%
[1]
  % PHAKPA (F129L) Disease level, P2 at 4 ppm: 1%
Pyrenophora teres (wt); 0.25 ppm
  Fungal growth (%) PYRNTE wt: 54%
[4]; 0.063 ppm
  Fungal growth (%) COLLLA: 63%
[2]
  % PHAKPA (F129L) Disease level, P6 at 16 ppm: 1%

## CNC(=O)/C(=N/OC)c1cccc(C)c1CO/N=C(\SC)c1cccc(C(F)(F)F)c1 [reference compound]
[2]
  % PHAKPA (F129L) Disease level, P6 at 4 ppm: 43%

## CNC(=O)/C(=N/OC)c1cccc(C)c1CO/N=C(\C)c1cccc(C)c1 [compound 77]
Septoria tritici
  Fungal growth (%) SEPTTR: 49%
[4]; 0.063 ppm
  Fungal growth (%) COLLLA: 39%

## CO/N=C(/C(=O)OC)c1cccc(C)c1CO/N=C(/c1cccc(C)c1)C1CC1 [drawing 953]
Septoria tritici; [9]
  Fungal growth (%) SEPTTR: 89%

## CNC(=O)/C(=N/OC)c1cccc(C)c1CO/N=C(\SC)c1cccc(Cl)c1 [drawing 981, reference compound]
[1]
  % PHAKPA (F129L) Disease level, P2 at 4 ppm: 20%
[2]
  % PHAKPA (F129L) Disease level, P6 at 16 ppm: 9%

## CNC(=O)/C(=N/OC)c1cccc(C)c1CO/N=C(\OC)c1cccc(C(F)(F)F)c1
Septoria tritici; [9]
  Fungal growth (%) SEPTTR: 77%

## CO/N=C(/C(=O)OC)c1cccc(C)c1CO/N=C(\C)c1cccc(C(F)(F)F)c1 [compound 9]
[2]; [8]
  PHAKPA (F129L) Disease level (%) P6 at 16 ppm: 4%
[2]
  % PHAKPA (F129L) Disease level, P6 at 16 ppm: 1%

## CO/N=C(/C(=O)OC)c1cccc(C)c1CO/N=C(\SC)c1cccc(Cl)c1 [drawing 984, reference compound]
[1]
  % PHAKPA (F129L) Disease level, P2 at 4 ppm: 47%
[2]
  % PHAKPA (F129L) Disease level, P6 at 16 ppm: 18%

## CNC(=O)/C(=N/OC)c1cccc(C)c1CO/N=C(\C)c1ccccc1C [compound 127]
[1]; soybean rust F129L
  % PHAKPA (F129L) Disease level, P2 at 4 ppm: 90%
  % PHAKPA (F129L) Disease level, P2 at 16 ppm: 44%
[2]; soybean rust F129L
  % PHAKPA (F129L) Disease level, P6 at 4 ppm: 93%
  % PHAKPA (F129L) Disease level, P6 at 16 ppm: 62%

## CNC(=O)/C(=N/OC)c1cccc(C)c1CO/N=C(\C)c1cccc(C(F)(F)F)c1 [compound 8]
Leptosphaeria nodorum; [6]
  Fungal growth (%) LEPTNO: 70%
[3]; 0.016 ppm, listed as Ex. 8
  Fungal growth (%) ALTESO F129L: 52%
[2]; 4 ppm, protective, inoculation six days after spraying, % diseased leaf area
  PHAKPA (F129L) Disease level (%) P6 at 4 ppm: 13%
[2]
  % PHAKPA (F129L) Disease level, P6 at 4 ppm: 1%

## CO/N=C(/C(=O)OC)c1cccc(C)c1CO/N=C(\OC)c1cccc(OC(F)(F)F)c1 [reference compound]
Cercospora sojina
  activity at 4 ppm: 56%
Pyricularia oryzae; Pyricularia oryzae, 168 h, read-out: Fungal growth (%) PYRIOR
  activity at 0.016 ppm: 58%
Leptosphaeria nodorum; [6]
  activity at 0.063 ppm: 100%

## CNC(=O)/C(=N/OC)c1cccc(C)c1CO/N=C(\C)c1cc(F)cc(F)c1 [compound 84]
[5]
  Fungal growth (%) PYRNTE F129L: 49%
[1]; soybean rust F129L
  % PHAKPA (F129L) Disease level, P2 at 4 ppm: 0%
  % PHAKPA (F129L) Disease level, P2 at 16 ppm: 0%
Alternaria solani (wt)
  Fungal growth (%) ALTESO wt: 43%
Pyricularia oryzae; 0.016 ppm, relative growth vs compound-free control (100%), 7 days
  Fungal growth (%) PYRIOR: 48%
Leptosphaeria nodorum
  Fungal growth (%) LEPTNO: 60%
Pyrenophora teres (wt)
  Fungal growth (%) PYRNTE wt: 39%
Microdochium nivale
  Fungal growth (%) MONGNI: 32%
[3]; 4 ppm
  Fungal growth (%) ALTEO F129L: 39%
[4]
  Fungal growth (%) COLLLA: 33%
[2]; soybean rust F129L
  % PHAKPA (F129L) Disease level, P6 at 4 ppm: 0%
  % PHAKPA (F129L) Disease level, P6 at 16 ppm: 0%

## CO/N=C(/C(=O)OC)c1cccc(C)c1CO/N=C(/c1cccc(Cl)c1)C1CC1 [drawing 963]
Septoria tritici
  Fungal growth (%) SEPTTR: 39%

## CO/N=C(/C(=O)OC)c1cccc(C)c1CO/N=C(\C)c1cccc(OC(F)(F)F)c1 [compound 28]
[1]; [7]
  PHAKPA (F129L) Disease level (%) P2 at 16 ppm: 30%
[1]; soybean rust F129L
  % PHAKPA (F129L) Disease level, P2 at 16 ppm: 0%
[2]; [8]
  PHAKPA (F129L) Disease level (%) P6 at 16 ppm: 18%
[2]; soybean rust F129L
  % PHAKPA (F129L) Disease level, P6 at 16 ppm: 0%

## CO/N=C(/C(=O)OC)c1cccc(C)c1CO/N=C(\C)c1cccc(Cl)c1 [compound 153]
Septoria tritici
  Fungal growth (%) SEPTTR: 0%
[1]
  % PHAKPA (F129L) Disease level, P2 at 4 ppm: 19%
Leptosphaeria nodorum; 0.063 ppm
  Fungal growth (%) LEPTNO: 55%
Pyrenophora teres (wt); 0.25 ppm
  Fungal growth (%) PYRNTE wt: 31%
[4]; 0.063 ppm
  Fungal growth (%) COLLLA: 55%
[2]; [8]
  PHAKPA (F129L) Disease level (%) P6 at 16 ppm: 1%
[2]
  % PHAKPA (F129L) Disease level, P6 at 16 ppm: 5%

## CO/N=C(/C(=O)OC)c1cccc(C)c1CO/N=C(\OC)c1cccc(C(F)(F)F)c1 [reference compound]
[2]
  % PHAKPA (F129L) Disease level, P6 at 16 ppm: 23%

## CO/N=C(/C(=O)OC)c1cccc(C)c1CO/N=C(\C)c1cccc(C)c1 [compound 76]
Septoria tritici; [9]
  Fungal growth (%) SEPTTR: 0%
[1]
  % PHAKPA (F129L) Disease level, P2 at 4 ppm: 35%
[2]; [8]
  PHAKPA (F129L) Disease level (%) P6 at 16 ppm: 0%
[2]
  % PHAKPA (F129L) Disease level, P6 at 16 ppm: 4%

## CO/N=C(/C(=O)OC)c1cccc(C)c1CO/N=C(\SC)c1cccc(C)c1 [drawing 952]
Septoria tritici; [9]
  Fungal growth (%) SEPTTR: 61%

## C=Cc1cccc(/C(=N\OC)C(=O)NC)c1CO/N=C(\C)c1ccccc1 [compound 400]
[1]
  % PHAKPA (F129L) Disease level, P2 at 4 ppm: 2%
  % PHAKPA (F129L) Disease level, P2 at 16 ppm: 0%
[2]
  % PHAKPA (F129L) Disease level, P6 at 4 ppm: 8%
  % PHAKPA (F129L) Disease level, P6 at 16 ppm: 0%
